Laboratory results taken from paper PMC9964651, “Discovery of Ureido-Based Apcin Analogues as Cdc20-specific Inhibitors against Cancer” (Pharmaceuticals, 2023).
Where two headings read alike, the source gives them in different places.

Key:
[1] = biological target: recombinant human Cdc20 protein (Homo sapiens, UniProt Q12834); assay: Surface plasmon resonance (SPR) assay; assay type: binding; conditions: for Kd: dissociation-equilibrium constant; for Kd / Kd (1/S): one-to-one model; for Kd (1/S): dissociation-rate constant
Chain of recombinant human Cdc20 protein (Q12834 whole entry): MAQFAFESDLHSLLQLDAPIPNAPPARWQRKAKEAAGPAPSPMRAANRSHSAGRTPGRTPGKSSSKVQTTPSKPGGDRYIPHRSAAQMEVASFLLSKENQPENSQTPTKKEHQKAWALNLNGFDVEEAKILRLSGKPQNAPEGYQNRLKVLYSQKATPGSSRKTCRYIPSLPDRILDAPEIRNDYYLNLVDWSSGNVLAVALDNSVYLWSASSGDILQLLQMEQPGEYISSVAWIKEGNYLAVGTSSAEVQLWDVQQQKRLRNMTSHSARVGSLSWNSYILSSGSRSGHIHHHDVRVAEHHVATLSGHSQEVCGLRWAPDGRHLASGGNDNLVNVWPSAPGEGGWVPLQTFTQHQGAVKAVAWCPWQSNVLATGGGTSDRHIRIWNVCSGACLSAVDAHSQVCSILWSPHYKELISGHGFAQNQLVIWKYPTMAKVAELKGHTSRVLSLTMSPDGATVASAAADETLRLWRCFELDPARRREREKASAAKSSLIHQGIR
Procedure: Surface plasmon resonance (SPR) analysis can measure the interaction process between various biomolecules, such as polypeptides, proteins, oligonucleotides, and oligosaccharides, as well as viruses, bacteria, cells, and small molecular compounds. First, we installed the COOH chip according to the standard operating procedure of the OpenSPRTM instrument and started running it at the maximum flow rate (150 μL/min). The detection buffer was PBS, and after reaching the signal baseline, 200 μL of isopropanol were loaded and the air was removed by running for 10 s. After reaching baseline, the sample loop was flushed with buffer and evacuated with air, and after the signal reached baseline, the buffer flow rate was adjusted to 20 μL/min. A total of 200 μL of EDC/NHS (1:1) solution (20 μL/min, 4 min), 200 μL EDC/NHS (1:1) solution (20 μL/min, 4 min), and 200 μL recombinant human Cdc20 protein buffer was loaded and run for 4 min (20 μL/min), and the sample loop was rinsed with buffer and drained with null air. A total of 200 μL of blocking solution was loaded (20 μL/min, 4 min), and the sample loop was flushed with buffer and evacuated with air. After the baseline was stable, the analyte was diluted with buffer and loaded at 20 μL/min. The binding time of the analyte and the ligand was 240 s, and the natural dissociation time was 480 s. The analysis software used for the experimental results was TraceDrawer (Ridgeview Instruments ab, Sweden), and the analysis method was the one-to-one analysis model.
Molecules were tested in a dilution series starting at 500 μM. The analyte was diluted with buffer and loaded at 20 μL/min. The binding time of the analyte and the ligand was 240 s, and the natural dissociation time was 480 s. The analysis software used for the experimental results was TraceDrawer (Ridgeview Instruments AB, Sweden), and the analysis method was the one-to-one analysis model.

Hela cells [2] = assay: Annexin V-FITC/PI double-staining cell-apoptosis assay; assay type: cell-based, human; conditions: 24 h, in words
Procedure: Then, the preset drug concentration was added and incubated for 24 h. Cells were collected by centrifugation, resuspended in buffer, and then stained by adding Annexin V-FITC (5 μL) and PI Staining Solution (5 μL) and incubated at room temperature for 10 min. The samples were detected by flow cytometry within 1 h after staining. Flow cytometer (Beckman Coulter Cytofex) was used for subsequent detection, and the data were processed with FlowJo software.

Mda-mb-231 = assay: In vitro antiproliferative assay (CCK-8); conditions: Homo sapiens, MDA-MB-231, 48 h, read-out: IC50 ± SD Mda-mb-231
Procedure: (§1) Hela and MDA-MB-132 cells were grown in DMEM (Gibco) containing 10% FBS and 1% double antibody (penicillin 100 U/mL, streptomycin 100 μg/mL, Solarbio). […] All cell lines were purchased from the Xiangya Cell Bank, Central South University, Changsha, China, and incubated at 37 °C with 5% CO2 in a humidified atmosphere. […] Cytotoxicity assay was assessed using CCK-8 methods. The cells were seeded in a 96-well plate (2 × 10^3–3 × 10^3 cells/well), the 96-well plate was incubated at 37 °C with 5% CO2 in a humidified atmosphere, and the cells were grown in a monolayer; the original culture was discarded. A total of 100 μL of drug-containing medium with a specific concentration gradient was added and then cultivated for 48 h; 10 μL/well of CCK-8 solution was added, put in an incubator, and incubated for 1 h and read with a multi-function microplate reader at a wavelength of 450 nm. The inhibition rate was calculated, and the IC50 results were calculated by GraphPad Prism 7 software. The experiment was repeated three times.

Hela [3] = assay: In vitro antiproliferative assay (CCK-8); assay type: cell-based, human; conditions: Homo sapiens, HeLa; CCK-8, 48 h, mean ± SD
Excerpt: The experiment was repeated three times.

Mcf-7 [4] = assay: In vitro antiproliferative assay (CCK-8); conditions: Homo sapiens, MCF7, 48 h, read-out: IC50 ± SD Mcf-7
Procedure: as §1

Hepg2 [5] = assay: In vitro antiproliferative assay (CCK-8); conditions: Homo sapiens, HepG2, 48 h, read-out: IC50 ± SD Hepg2
Procedure: as §1

Hela cells [6] = assay: Cell-cycle assay (flow cytometry, propidium iodide); assay type: cell-based, human; conditions: 24 h; for number of cells in the mitotic G2/M phase: in words
Procedure: Then, the preset drug concentration was added and incubated for 24 h. Cells were collected by centrifugation and were fixed overnight with pre-cooled ethanol (70%) and washed twice with buffer, propidium-iodide staining solution was added (0.5 mL/well), and they were incubated at 37 °C for 30 min in the dark for flow detection.

Hela [7] = test system: Hela; design: method as in PMID 32290657; conditions: previous studies; read-out: IC50 ± SD Hela; cited from earlier work
Mcf-7 [8] = test system: Mcf-7; design: method as in PMID 32290657; conditions: previous studies; read-out: IC50 ± SD Mcf-7; cited from earlier work
Hepg2 [9] = test system: Hepg2; design: method as in PMID 32290657; conditions: previous studies; read-out: IC50 ± SD Hepg2; cited from earlier work
tubulin [10] = test system: tubulin; design: method as in PMID 32290657; conditions: previous research of the authors; cited from earlier work
tubulin [11] = assay: Tubulin polymerization assay in vitro; assay type: biochemical
Procedure: We used an HTS-Tubulin Polymerization Assay Kit (BK004P, Cytoskeleton, USA) to assess the inhibitory effect of compounds on tubulin polymerization. Tubulin solution was prepared, and the compound solution and paclitaxel solution were tested according to the instructions of the kit. General tubulin buffer, paclitaxel solution, and 10× test compound solution were added to a 96-well plate (10 μL/well) and incubated at 37 °C for two minutes. A total of 100 μL of tubulin solution was pipetted into the corresponding wells. The plate was immediately placed on a multi-function microplate reader at 37 °C, and the continuous kinetic values were recorded.
Figure 7 The effect of compound 20 and compound 27 on in vitro tubulin polymerization was tested. Polymerization of purified tubulin was performed in a cell-free assay. Tubulin protein was incubated at 37 °C in a reaction buffer exposed to vehicle control or test compounds at the indicated concentrations. Absorbance at 340 nm was monitored at 37 °C every 30 s for 1 h.

four cancer-cell lines = assay: In vitro antiproliferative assay (CCK-8), cell line not given; conditions: Homo sapiens, read-out: IC50 (antiproliferative activity)
[12] = test system: Cdc20 and downstream substrates (cyclin B1, securin, Bim, cleaved PARP) in Hela cells; assay: Western blot of Cdc20 and Cdc20 downstream proteins; assay type: cell-based, human; conditions: for Cdc20 protein level: 12 h after addition
Procedure: The lysate for extracting cellular proteins was prepared with bromophenol blue (0.02%), dithiothreitol (DTT; 0.5M), glycerol (30%), sodium dodecyl sulfate (SDS; 10%) and Tris-Cl (0.25M, pH 6.8). Protein extracts were separated according to molecular weight by the polyacrylamide gel electrophoresis (PAGE) method and then transferred to solid-phase support (PVDF membrane). The PVDF membrane was placed in a blocking solution containing 5% skim milk for 2 h, followed by incubation with primary and secondary antibodies, and the bands were detected and imaged in the ChemiDocTMXRS+ imaging system.
Figure 1 (A) Expression levels of Cdc20 protein in different cell lines. (B) Cdc20 levels were measured by Western blot 12 h after the addition of compounds. The reproducibility of the results was confirmed by at least two separate experiments. (a) Quantitative results of (A) compared to Hela. (b) Quantitative results of (B) compared to control. Statistical significance was calculated by two-tailed unpaired t test.
Figure 4 (A) Protein levels of cyclin B1 and securin were measured by Western blot. (B) Protein levels of Bim were measured by Western blot. (C) Protein levels of cleaved PARP were measured by Western blot. […] (a–d) Quantitative results of (A–C) compared to control. Statistical significance was calculated by two-tailed unpaired t test (* p < 0.05, ** p < 0.01, *** p < 0.001).

In the case of `Cc1ncc([N+](=O)[O-])n1CCOC(=O)N[C@@H](Nc1ncccn1)C(Cl)(Cl)Cl` (racemic) [Apcin], the Kd [1] is reported as 236 µM, the “Kd (1/S)” value [1] is reported as 2.33 × 10^−2 1/S and the apoptotic rates (Hela cells [2]) is reported as “increased in a concentration-dependent way”. For the same compound, the IC50 (Mda-mb-231) was > 100 µM, the IC50 (Hela [3]) was 182 ± 12.5 µM and the IC50 (Mcf-7 [4]) was > 100 µM. For the same compound, the IC50 (Hepg2 [5]) was > 100 µM, the “P4 gate (cells in the G2/M phase)” value (Hela cells [6]; 150μm) was 34.87% and the “number of cells in the mitotic G2/M phase” value (from here on “number of cells”) (Hela cells [6]) was “significant increase”.
In the case of `Cc1ncc([N+](=O)[O-])n1CCOC(=O)N[C@H](Nc1c(Cl)nc(N)nc1Cl)C(Cl)(Cl)Cl` [Compound 7d], the IC50 (Hela [7]) is given as 63.2 ± 0.9 µM, the IC50 (Mcf-7 [8]) is given as 160 ± 5 µM and the IC50 (Hepg2 [9]) is given as 25.6 ± 6.1 µM.
For `Nc1nc(F)nc2c1ncn2[C@H](NC(=O)OCCN1CCOCC1)C(Cl)(Cl)Cl` [Compound 9f, reference compound], the “effect on Cdc20 and microtubules” value (tubulin [10]) is listed as “dual inhibitory effects of Cdc20 and microtubules”, the IC50 (Hela [7]) is listed as 0.3 ± 0.2 µM and the IC50 (Mda-mb-231) is listed as 1.4 ± 0.22 µM. For the same compound, the IC50 (Hela [3]) was 0.1 ± 0.02 µM, the IC50 (Mcf-7 [4]) was 0.61 ± 0.12 µM and the IC50 (Hepg2 [5]) was 0.41 ± 0.36 µM.
With `Nc1c(Cl)nc(NC(NC(=O)NCCc2ccccc2)C(Cl)(Cl)Cl)nc1Cl` (stereo not drawn) [Compound 20, 1-(1-((5-amino-4,6-dichloropyrimidin-2-yl)amino)-2,2,2-trichloroethyl)-3-phenethylurea] the Kd [1] was 79.6 µM, the “Kd (1/S)” value [1] was 5.78 × 10^−3 1/S and the “binding affinity to Cdc20 relative to Apcin” value ([1]; from Kd values) was “about three times”. For the same compound, the apoptotic rates (Hela cells [2]) was “increased in a concentration-dependent way”, the IC50 (Mda-mb-231) was 30.4 ± 13 µM and the “effect on microtubule polymerization” value (tubulin [11]; cell-free, purified tubulin, 37 °C, absorbance 340 nm, 30 μM) was “slightly promoted microtubule polymerization”. For the same compound, the IC50 (Hela [3]) was 24.7 ± 2.01 µM, the IC50 (Mcf-7 [4]) was 35 ± 3.06 µM and the IC50 (four cancer-cell lines) was < 40 µM. The IC50 (Hepg2 [5]) was 31.2 ± 8.37 µM, the “expression of Bim” value [12] was “significantly increase” and the “expression of cleaved PARP” value [12] was “significantly increase”. For the same compound, the “level of cyclin B1 protein” value [12] was “significantly increased”, the “level of securin protein” value [12] was “significantly increased” and the Cdc20 protein level [12] was “no effect”. For the same compound, the “P4 gate (cells in the G2/M phase)” value (Hela cells [6]; 40μm) was 41.09% and the “number of cells” value (Hela cells [6]) was “significant increase”.
With `Nc1nc(F)nc2c1ncn2C(NC(=O)NCCN1CCOCC1)C(Cl)(Cl)Cl` (stereo not drawn) [Compound 27, 1-(1-(6-amino-2-fluoro-9H-purin-9-yl)-2,2,2-trichloroethyl)-3-(2-morpholinoethyl)urea] the apoptotic rates (Hela cells [2]) was “increased in a concentration-dependent way”, the IC50 (Mda-mb-231) was 0.32 ± 0.04 µM and the “effect on microtubule polymerization” value (tubulin [11]; cell-free, purified tubulin, 37 °C, absorbance 340 nm, 3 μM and 30 μM) was “promoted microtubule polymerization in a concentration-dependent manner”. The IC50 (Hela [3]) was 0.06 ± 0.02 µM, the IC50 (Mcf-7 [4]) was 0.27 ± 0.06 µM and the IC50 (Hepg2 [5]) was 0.24 ± 0.11 µM. The “expression of Bim” value [12] was “significantly increase”, the “expression of cleaved PARP” value [12] was “significantly increase” and the “level of cyclin B1 protein” value [12] was “significantly increased”. The “level of securin protein” value [12] was “significantly increased”, the Cdc20 protein level [12] was “no effect” and the “number of cells” value (Hela cells [6]) was “slightly reduced”.
With `CC(=O)O[C@H]1C(=O)[C@@]2(C)[C@H]([C@H](OC(=O)c3ccccc3)[C@]3(O)C[C@H](OC(=O)[C@H](O)[C@@H](NC(=O)c4ccccc4)c4ccccc4)C(C)=C1C3(C)C)[C@]1(OC(C)=O)CO[C@@H]1C[C@@H]2O` [paclitaxel, reference compound] the “effect on microtubule polymerization” value (tubulin [11]; reference compound, concentration not given) was “promote microtubule polymerization”.
